Reference: patent US20110200708A1, “A COMPOSITION FOR ACTIVATING AND/OR STABILIZING MICRO-ORGANISMS” (priority 2008, published 2011)
Where “and” joins values, the source holds several entries; their conditions need not be identical. Identical values can stand only once. Like-named read-outs stand apart in the source and are kept apart here.

Tests used:
[1] = test system: mesophilic lactic acid bacteria Strain 3; details: 31° C.
Procedure: (§1) One litre of 2%-fat UHT milk was added to a previously sterilized 1200 ml fermentor vessel. Suspensions of yeast extract formulated with either iron pyrophosphate or iron sulfate were sterilized separately and added to the vessel to supply the milk with 0.02 wt % yeast extract and iron at a final amount of 2.4, 4.2 or 6 ppm.
(§2) Vessels were heated to 31° C., inoculated with freshly thawed culture concentrates and incubated for 7 hours under pH-control (pH between 5.9 and 6.1). After the incubation, the obtained starter culture was immediately cooled to a temperature below 8° C.
(§3) The obtained starter culture was tested for acidification activity by inoculating cold 2%-fat UHT-pasteurised milk with 3.0% (v/v) of the culture, incubating the inoculated milk for 2.5 hours at 31° C., and then measuring the change in pH of the milk versus non-inoculated milk. The experiment was done for five different mesophilic lactic acid bacteria strains.

[2] = test system: mesophilic lactic acid bacteria Strain 5; details: 31° C.
Procedure: as §1, §2, §3

[3] = test system: mesophilic lactic acid bacteria Strain 4; details: 31° C.
Procedure: as §1, §2, §3

[4] = test system: mesophilic lactic acid bacteria Strain 8; assay: Acidification activity of bulk starter cultures with yeast extract, iron, manganese and/or molybdate, Strain 8; format: cell-based; details: YE 0.02 wt %, Fe, Mn, Mo 8 ppm each
Procedure: (§4) The strains were fermented in sterilized production medium in a standard fermentation vessel. The fermentation was carried out by maintaining the pH between 6-6.5 with ammonia at a temperature of about 30° C. The culture was harvested after ammonia consumption was stabilized. The culture was cooled to a temperature of below 10° C. and centrifuged. A concentration factor (harvested broth over pellet volume) of 15-20 was obtained. The obtained concentrate was used for further testing, e.g. with the cell concentrates a series of bulk starter culture fermentations was performed. […] The bulk starter culture was prepared by fermenting the milk during 6 hours at 30° C. under pH-stat conditions. Ammonia was used to maintain the pH at 6.0-6.2. Samples (1.5 ml) of the cultures were taken after 5 and 6 hours fermentation. The samples were tested to establish the acidification activity of the culture under standard conditions. […] The strains were fermented as described in Example 6. The bulk starter cultures were prepared as described in Example 6 with the proviso that the UHT milk was inoculated with 0.6 wt % cell concentrate. Acid production was measured as described in Example 6 with the proviso that 6 gram sample was taken from the cultures after 5 and 6 hours and added to 200 g UHT milk. The experiment was done with two different strains.

[5] = test system: mesophilic lactic acid bacteria Strain 9; assay: Acidification activity of bulk starter cultures with yeast extract, iron, manganese and/or molybdate, Strain 9; format: cell-based; details: YE 0.02 wt %, Fe, Mn, Mo 8 ppm each
Procedure: as §4

strain 6 = assay: Acidification activity of strain 6 bulk starter cultures at different iron and manganese concentrations; format: cell-based, mesophilic lactic acid bacteria
Procedure: The strains were fermented in sterilized production medium in a standard fermentation vessel. The fermentation was carried out by maintaining the pH between 6-6.5 with ammonia at a temperature of about 30° C. The culture was harvested after ammonia consumption was stabilized. The culture was cooled to a temperature of below 10° C. and centrifuged. A concentration factor (harvested broth over pellet volume) of 15-20 was obtained. The obtained concentrate was used for further testing, e.g. with the cell concentrates a series of bulk starter culture fermentations was performed. […] The bulk starter culture was prepared by fermenting the milk during 6 hours at 30° C. under pH-stat conditions. Ammonia was used to maintain the pH at 6.0-6.2. Samples (1.5 ml) of the cultures were taken after 5 and 6 hours fermentation. The samples were tested to establish the acidification activity of the culture under standard conditions. […] Several different final iron and manganese concentrations were used in this experiment. The bulk starter culture was prepared as described above with the proviso that the UHT milk was inoculated with 0.6 wt % cell concentrate.

[6] = test system: mesophilic lactic acid bacteria Strain 1; details: 31° C., in the absence of iron 1.18
Procedure: as §1, §2, §3

[7] = test system: mesophilic lactic acid bacteria Strain 2; details: 31° C., in the absence of iron 1.44
Procedure: as §1, §2, §3

[8] = Strain 3, 2.4 ppm iron + 0.02 wt % yeast extract
[9] = Strain 3, 4.2 ppm iron + 0.02 wt % yeast extract
[10] = Strain 3, 6.0 ppm iron + 0.02 wt % yeast extract
[11] = Strain 5, 2.4 ppm iron + 0.02 wt % yeast extract
[12] = Strain 5, 4.2 ppm iron + 0.02 wt % yeast extract
[13] = Strain 5, 6.0 ppm iron + 0.02 wt % yeast extract
[14] = Strain 4, 2.4 ppm iron + 0.02 wt % yeast extract
[15] = Strain 4, 4.2 ppm iron + 0.02 wt % yeast extract
[16] = Strain 4, 6.0 ppm iron + 0.02 wt % yeast extract

In the case of O=P([O-])([O-])OP(=O)([O-])[O-].O=P([O-])([O-])OP(=O)([O-])[O-].O=P([O-])([O-])OP(=O)([O-])[O-].[Fe+3].[Fe+3].[Fe+3].[Fe+3] [Iron pyrophosphate, iron pyrophosphate], the Acidification activity [1, 8] is reported as 1.45 ΔpH/2.5 h, the Acidification activity [1, 9] is reported as 1.48 ΔpH/2.5 h and the Acidification activity [1, 10] is reported as 1.50 ΔpH/2.5 h. The Acidification activity [2, 11] was 1.25 ΔpH/2.5 h, the Acidification activity [2, 12] was 1.32 ΔpH/2.5 h and the Acidification activity [2, 13] was 1.33 ΔpH/2.5 h. The Acidification activity [3, 14] was 1.48 ΔpH/2.5 h, the Acidification activity [3, 15] was 1.56 ΔpH/2.5 h and the Acidification activity [3, 16] was 1.58 ΔpH/2.5 h.

For [Na+].[Na+].[O]=[Mo](=[O])([O-])[O-] [Mo, sodium molybdate], the “Acidification activity of bulk starter culture” value ([4]; Strain 8, 5 hours, no addition 0.64) was 0.73 ΔpH/2.5 h, the “Acidification activity of bulk starter culture” value ([4]; Strain 8, 6 hours, no addition 1.08) was 1.04 ΔpH/2.5 h and the “Acidification activity of bulk starter culture” value ([5]; Strain 9, 5 hours, no addition 0.33) was 0.55 ΔpH/2.5 h. The “Acidification activity of bulk starter culture” value ([5]; Strain 9, 6 hours, no addition 0.43) was 0.79 ΔpH/2.5 h.

In the case of O=S(=O)([O-])[O-].[Mn+2] [M, manganese sulphate], the “Acidification activity of bulk starter culture” value (strain 6; strain 6, Fe 0 ppm, Mn 2.4 ppm, 7 hours, 0/0 ppm 1.61) is reported as 1.65 ΔpH/2.5 h.

In the case of O=S(=O)([O-])[O-].[Fe+2] [Iron sulphate, iron sulphate], the “Acidification activity of bulk starter culture” value (strain 6) is reported as 1.67 ΔpH/2.5 h and 1.66 ΔpH/2.5 h, the Acidification activity ([6]; Strain 1, 2.4 ppm iron + 0.02 wt % yeast extract) is reported as 1.47 ΔpH/2.5 h and the Acidification activity ([6]; Strain 1, 6.0 ppm iron + 0.02 wt % yeast extract) is reported as 1.53 ΔpH/2.5 h. The Acidification activity [1, 8] was 1.49 ΔpH/2.5 h, the Acidification activity [1, 9] was 1.49 ΔpH/2.5 h and the Acidification activity [1, 10] was 1.51 ΔpH/2.5 h. For the same compound, the Acidification activity [2, 11] was 1.29 ΔpH/2.5 h, the Acidification activity [2, 12] was 1.33 ΔpH/2.5 h and the Acidification activity [2, 13] was 1.35 ΔpH/2.5 h. The Acidification activity ([7]; Strain 2, 2.4 ppm iron + 0.02 wt % yeast extract) was 1.77 ΔpH/2.5 h, the Acidification activity ([7]; Strain 2, 6.0 ppm iron + 0.02 wt % yeast extract) was 1.71 ΔpH/2.5 h and the Acidification activity [3, 14] was 1.54 ΔpH/2.5 h. The Acidification activity [3, 15] was 1.56 ΔpH/2.5 h and the Acidification activity [3, 16] was 1.57 ΔpH/2.5 h.
